From patent US7252992B2, “Cell line and uses thereof” (Abbott Laboratories, priority 2003, dated 2007)

What was measured:
[1] = molecular target: T1, melanin concentrating hormone receptor (MCHR) (Homo sapiens, UniProt Q99705); test: Ca++-mobilization assay using I3.4.2 cells (FLIPR); type: cell-based; conditions: for inhibition of MCH-stimulated intracellular Ca++-flux: T42402I3.4.2 cell line, FIG. 3
T1 construct: endogenous in cells; host or cells: T42402I3.4.2 (I3.4.2) cells, ATCC PTA-5201, derived from IMR32 (ATCC CCL-127) by transfection of a Galpha16/Zeocin-resistance plasmid
Protocol: The following day, Zeocin (Invitrogen, Carlsbad, Calif.) was added to a final concentration of 20 μg/ml. Cells were maintained in this medium with periodic replacement until discrete colonies were observed. Individual colonies were isolated and propagated until sufficiently large cell populations were obtained such that the cell samples could be cryopreserved.
This intracellular calcium release is measured using a fluorometeric imaging plate reader (FLIPR™, Molecular Devices Corp., Sunnyvale, Calif.) in conjunction with the Ca^++-sensitive dye reagent (Calcium Assay Reagent, Molecular Devices Corp., Sunnyvale, Calif.). Release of Ca^++ from intracellular stores causes an increase in fluorescence of the dye that is proportional to Ca^++ concentration. Thus, this method may be utillized to identify agonist-s, antagonists, and inverse agonists of MCHR1.
In particular, the assay is carried out as follows: The cells are cultured in MEM/10% fetal bovine serum/50 μg/mL gentamicin/200 μg/ml Zeocin. […] Calcium Assay Reagent fluorescence is measured at 488 nm, with an exposure of 0.40 sec. and F-stop=2.0 and the laser set at 0.20-0.40 W constant light output.

MCHR1 [2] = molecular target: T2, MCHR1 (Homo sapiens, UniProt Q99705); conditions: literature (Takekawa et al. 2002; Borowsky et al. 2002); cited from earlier work
MCHR1 [3] = molecular target: T2, MCHR1; conditions: literature (Takekawa et al. 2002; Borowsky et al. 2002); cited from earlier work; remark: listed apart in the source

T2 sequence (Q99705 whole entry, species assumed): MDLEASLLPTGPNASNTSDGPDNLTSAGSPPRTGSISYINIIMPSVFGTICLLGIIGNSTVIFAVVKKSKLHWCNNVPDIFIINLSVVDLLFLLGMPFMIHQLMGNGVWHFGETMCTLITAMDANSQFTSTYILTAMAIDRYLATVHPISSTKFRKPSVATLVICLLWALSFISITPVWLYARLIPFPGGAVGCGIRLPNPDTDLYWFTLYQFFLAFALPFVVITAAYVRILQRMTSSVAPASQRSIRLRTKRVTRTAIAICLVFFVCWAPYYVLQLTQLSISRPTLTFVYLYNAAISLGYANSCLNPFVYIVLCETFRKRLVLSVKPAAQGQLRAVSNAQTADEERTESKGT
T1 sequence (Q99705 whole entry): as the sequence (Q99705 whole entry, species assumed) above

Q: Which “MCH-induced response (fluorescence)” value ([1]; MCH 1 μM, baseline approximately 700 RFU) does the source give for CSCC[C@@H]1NC(=O)[C@@H](NC(=O)[C@H](CCCNC(=N)N)NC(=O)[C@H](CC(C)C)NC(=O)[C@H](CCSC)NC(=O)[C@H](CC(=O)O)NC(=O)[C@H](Cc2ccccc2)NC(=O)[C@@H](N)CC(=O)O)CSSC[C@@H](C(=O)N[C@@H](Cc2c[nH]c3ccccc23)C(=O)N[C@@H](CCC(N)=O)C(=O)N[C@H](C(=O)O)C(C)C)NC(=O)[C@@H]2CCCN2C(=O)[C@H](CCCNC(=N)N)NC(=O)[C@H](Cc2ccc(O)cc2)NC(=O)[C@H](C(C)C)NC(=O)[C@H](CCCNC(=N)N)NC(=O)CNC(=O)[C@H](CC(C)C)NC1=O [MCH, melanin-concentrating hormone] here?
A: 5,000-6,000 relative fluorescence units (RFU)

Q: Which “inhibition of binding of 125I-labeled MCH to MCHR1” value (MCHR1 [2]) does the source give for COCC1=C(C(=O)OC)[C@H](c2ccc(F)c(F)c2)N(C(=O)NCCCN2CCC(c3cccc(NC(C)=O)c3)CC2)C(=O)N1 [SNAP-7941] here?
A: inhibit binding

Q: And the “inhibition of MCH-stimulated intracellular Ca++-flux” value [1]?
A: inhibited

Q: And the “inhibition of activation of intracellular signaling by MCH” value (MCHR1 [3])?
A: inhibit

Q: Which results are given for CN(C)CC1CCc2cc(NC(=O)c3ccc(-c4ccc(F)cc4)cc3)ccc2C1 (stereo not shown) [T-226296]?
A: inhibition of binding of 125I-labeled MCH to MCHR1 (MCHR1 [2]): inhibit binding; inhibition of MCH-stimulated intracellular Ca++-flux [1]: inhibited; inhibition of activation of intracellular signaling by MCH (MCHR1 [3]): inhibit
